Legend:
[1] = test system: an ETEC and an EPEC strain; conditions: cited from earlier work
H. pylori CCUG 17875 = assay: Binding of 35S-labeled Helicobacter species to glycosphingolipids on thin-layer chromatograms; set-up: species or system Helicobacter pylori; key: + denotes a significant darkening on the autoradiogram when 2 μg (or 40 μg in the case of the last sample) was applied to TLC plates; − denotes no binding; conditions: 2 μg (40 μg for the glycosphingolipid fraction) on TLC plates
Excerpt: (§1) Gastric species examined in the present study included, Helicobacter mustelae ferret isolates from the National Collection of Type Cultures (NCTC) and the Culture Collection of the University of Gothenberg (CCUG), NCTC 12198/CCUG 25175 (equivalent strains from different sources tested), CCUG 23950 and CCUG 23951, Helicobacterfelis CCUG 28539 from a cat, in addition, H. pylori strains CCUG 17874, CCUG 17875 and a clinical isolate 119/95 were used. Enterohepatic helicobacters of animal origin were purchased from the CCUG including, Helicobacter canes CCUG 33835, Helicobacter bilis CCUG 38995, Helicobacter hepaticus CCUG 33637, and Helicobacterfennelliae (CCUG 18820).
(§2) Binding of Helicobacter spp. to glycosphingolipids, both acid and non-acidfractions. Glycosphingolipids were isolated by standard procedures (Karlsson, 1987). The identity of the purified glycosphingolipids was confirmed by mass spectrometry (Samuelsson et al., 1990), proton NMR spectroscopy (Koerner et al., 1983) and degradation studies (Stellner et al., 1973; Yang and Hakomori, 1971).
(§3) Mixtures of glycosphingolipids (40 μg/lane) or pure compounds (2 μg/lane) were subsequently separated using thin-layer chromatography (TLC) on glass- or aluminum-backed silica gel 60 HPTLC plates (Merck, Darmstadt, Germany), with chloroform/methanot/water (60:35:8, by volume) as solvent system. Chemical detection was accomplished by anisaldehyde (Waldi, 1962). Helicobacter spp. were subjected to ^35S-labeling (Angstrom et al., 1998) and suspended in PBS (10^8 CFU/ml) with a specific activity of approximately 1 cpm per 100 organisms. Binding of the labeled-bacteria to glycosphingolipids separated by TLC was achieved using a bacterial-overlay technique coupled with autoradiography detection using XAR-5 X-ray films (Eastman Kodak, Rochester, N.Y.) as previously described (Hansson et al., 1985).

H. pylori CCUG 17874 = assay: as above; set-up: species or system Helicobacter pylori; key: + denotes a significant darkening on the autoradiogram when 2 μg (or 40 μg in the case of the last sample) was applied to TLC plates; − denotes no binding; conditions: 2 μg (40 μg for the glycosphingolipid fraction) on TLC plates
Excerpt: as §1, §2, §3

H. mustelae 25715 = assay: as above; set-up: species or system Helicobacter mustelae; key: + denotes a significant darkening on the autoradiogram when 2 μg (or 40 μg in the case of the last sample) was applied to TLC plates; − denotes no binding; conditions: 2 μg (40 μg for the glycosphingolipid fraction) on TLC plates
Excerpt: as §1, §2, §3

[2] = test system: H. mustelae CCUG 23950 & 23951; assay: as above; set-up: species or system Helicobacter mustelae; key: + denotes a significant darkening on the autoradiogram when 2 μg (or 40 μg in the case of the last sample) was applied to TLC plates; − denotes no binding; conditions: 2 μg (40 μg for the glycosphingolipid fraction) on TLC plates
Excerpt: as §1, §2, §3

H. felis CCUG 28539 = assay: as above; set-up: species or system Helicobacter felis; key: + denotes a significant darkening on the autoradiogram when 2 μg (or 40 μg in the case of the last sample) was applied to TLC plates; − denotes no binding; conditions: 2 μg (40 μg for the glycosphingolipid fraction) on TLC plates
Excerpt: as §1, §2, §3

H. bilis CCUG 38995 = assay: as above; set-up: species or system Helicobacter bilis; key: + denotes a significant darkening on the autoradiogram when 2 μg (or 40 μg in the case of the last sample) was applied to TLC plates; − denotes no binding; conditions: 2 μg (40 μg for the glycosphingolipid fraction) on TLC plates
Excerpt: as §1, §2, §3

H. canis CCUG 33835 = assay: as above; set-up: species or system Helicobacter canis; key: + denotes a significant darkening on the autoradiogram when 2 μg (or 40 μg in the case of the last sample) was applied to TLC plates; − denotes no binding; conditions: 2 μg (40 μg for the glycosphingolipid fraction) on TLC plates
Excerpt: as §1, §2, §3

H. hepaticus CCUG 33637 = assay: as above; set-up: species or system Helicobacter hepaticus; key: + denotes a significant darkening on the autoradiogram when 2 μg (or 40 μg in the case of the last sample) was applied to TLC plates; − denotes no binding; conditions: 2 μg (40 μg for the glycosphingolipid fraction) on TLC plates
Excerpt: as §1, §2, §3

[3] = test system: gastric and enterohepatic Helicobacter spp.; assay: Binding of Helicobacter spp. to glycosphingolipids (statements for several species)
Excerpt: as §1, §2, §3

E. coli EIEC CCUG 38092 = assay: Chromatogram binding assay, binding specificities of type strains; set-up: species or system Escherichia coli; conditions: prolonged sub-culture, 4 μg per lane
Description: Culture Conditions and Labeling—The E. coli strains were cultured on Luria-agar with the addition of 10 μl ^35S-methionine (400 tici; Amersham Pharmacia Biotech, U.K.) at 37° C. for 12 h. The bacteria were harvested by scraping, washed three times with phosphate-buffered saline (PBS), pH 7.3, and thereafter resuspended in PBS (with or without 1% mannose (w/v)) to 1×10^8 CFU/ml. The specific activities of the suspensions were approximately 1 cpm per 100 bacteria.
Thin-Layer Chromatography—Thin-layer chromatography of glycosphingolipids was performed on glass- or aluminum-backed silica gel 60 HPTLC plates (Merck, Darmstadt, Germany), using chloroform/methanol/water 60:35:8 (by volume) as solvent system. Chemical detection was done with anisaldehyde (6).
(§4) Glycosphingolipid Binding Assays—Binding of ^35S-labeled bacteria to glycosphingolipids on thin-layer chromatograms was done as reported (7). Dried chromatograms were dipped for 1 min in diethylether/n-hexane (1:5, by volume) containing 0.5% (w/v) polyisobutylmethacrylate (Aldrich Chem. Comp. Inc., Milwaukee, Wis.). After drying, the chromatograms were soaked in PBS containing 2% bovine serum albumin (w/v), 0.1% NaN3 (w/v) and 0.1% Tween 20 (by volume) for 2 h at room temperature. The chromatograms were subsequentely covered with radiolabeled bacteria diluted in PBS (2-5×10^6 cpm/ml). Incubation was done for 2 h at room temperature, followed by repeated washings with PBS. The chromatograms were thereafter autoradiographed using XAR-5 X-ray films (Eastman Kodak, Rochester, N.Y.) for 12 h. Autoradiograms were replicated using a CCD camera (Dage-MTI, Inc., Michigan City, Ind.), and analysis of the images was performed using the public domain NIH Image program (developed at the U.S. National Institutes of Health, and available at http://rsb.info.nih.eov/nih-imaee/).
However, several wild type diarrheagenic E. coli strains bind to sialic acid (see e.g. FIG. 6 and FIG. 3). […]

EPEC strain = conditions: listed in decreasing order of activity; cited from earlier work
diarrheagenic E. coli = assay: Comparison of binding to dilution series of sialyl-neolactotetraosylceramide variants; set-up: species or system Escherichia coli; conditions: dilution series of glycolipids
Description: as §4
To dissect the sialic acid binding preferences of diarrheagenic E. coli, the binding of bacteria to variants of sialyl-neoleactotetraosylceramide was compared. […] The comparison was performed by using dilution series of glycolipids and comparing the disappearence of the bindings when the amounts of glycolipids were reduced.

[4] = both gastric and enterohepatic Helicobacter spp. tested

Row | Compound | Inhibition of binding of an ETEC and an EPEC strain to Caco-2 cells [1] | Binding of glycosphingolipids to H.pylori 17875 (H. pylori CCUG 17875) | Binding of glycosphingolipids to H.pylori 17874 (H. pylori CCUG 17874) | Binding of glycosphingolipids to H.mustelae 25715 (H. mustelae 25715) | Binding of glycosphingolipids to H.mustelae 23950 & 23951 [2] | Binding of glycosphingolipids to H.felis 28539 (H. felis CCUG 28539) | Binding of glycosphingolipids to H.bilis 38995 (H. bilis CCUG 38995) | Binding of glycosphingolipids to H.canis 33835 (H. canis CCUG 33835) | Binding of glycosphingolipids to H.hepaticus 33637 (H. hepaticus CCUG 33637) | Binding of Helicobacter spp. to glycosphingolipid, in words [3, 4] | Binding of Helicobacter spp. to glycosphingolipid, in words ([3]; H. felis, H. canis, H. hepaticus and H. bilis) | Binding of E. coli CCUG 38092 to pure glycosphingolipids after sub-culture (E. coli EIEC CCUG 38092) | Binding of an EPEC strain to commercial glycolipids (EPEC strain) | Binding of E. coli CCUG 38092 to pure glycosphingolipids after sub-culture (E. coli EIEC CCUG 38092; listed as isoglobotriaosylceramide) | Relative binding affinity, order by disappearance of binding in dilution series (diarrheagenic E. coli)
1 | Galβ3GalNAcβ4(NeuAcα3)Galβ4Glcβ1Cer [No. 29] | inhibiting |  |  |  |  |  |  |  |  |  |  |  |  |  | 
2 | CC(=O)N[C@H]1[C@H]([C@H](O)[C@H](O)CO)OC(O)(C(=O)O)C[C@@H]1O (some centres unmarked) [N-acetylneuraminic acid] | negative |  |  |  |  |  |  |  |  |  |  |  |  |  | 
3 | NeuGcα3Galβ4GlcNAcβ3Galβ4GlcNAcβ3Galβ4Glcβ1Cer [No. 36] |  | + | + | + | + | + | + | + | + |  |  |  |  |  | 
4 | Galβ4Glcβ1Cer [No. 5] |  | + | + | + | + | + | + | + | + | capable of binding |  |  |  |  | 
5 | Galβ3GalNAcβ4Galβ4Glcβ1Cer [No. 11] |  | + | + | + | + | + | + | + | + |  | binding was demonstrated | remain | observed to bind |  | 
6 | Galα3Galβ4Glcβ1Cer [No. 7] |  | + | + | + | + | + | + | + | + | capable of binding |  |  |  | Selective loss of binding | 
7 | Galβ3GlcNAcβ3Galβ4Glcβ1Cer [No. 23] |  | + | + | + | + | + | + | + | + | capable of binding |  |  |  |  | 
8 | NeuAcα3Galβ4GlcNAcβ3Galβ4Glcβ1Cer [No. 31] |  |  |  |  |  |  |  |  |  |  |  |  |  |  | finally
9 | NeuGcα3Galβ4GlcNAcβ3Galβ4Glcβ1Cer [No. 33] |  |  |  |  |  |  |  |  |  |  |  |  |  |  | highest affinity
10 | lactosylceramide | negative |  |  |  |  |  |  |  |  |  |  |  | negative |  | 
